Data from patent publication US20060211733A1, “Methods of preventing and treating opioid bowel dysfunction” (Adolor Corporation, priority 2005, published 2006).

Test system: opioid-induced bowel dysfunction in non-malignant pain subjects
Assay: six-week, randomized, double-blind, placebo-controlled study of three alvimopan dosage regimens
Format: in vivo, human
Protocol: A six-week, randomize, double-blind, placebo-controlled study was conducted to evaluate three dosage regimens for [[(2S)-2-[[(3R,4R)-4-(3-hydroxyphenyl)-3,4-dimethylpiperidin-1-yl]methyl]-3-phenylpropanoyl]amino]acetic acid dihydrate (alvimopan) for the treatment of opioid-induced bowel dysfunction in non-malignant pain subjects, including an evaluation of the improvement of spontaneous bowel movement (SBM) frequency compared to placebo while maintaining an acceptable tolerability profile.
Subjects meeting the initial screening criteria for the study population, and who had been administered chronic opioid therapy for non-malignant pain, were selected.

SMILES: C[C@H]1CN(C[C@H](Cc2ccccc2)C(=O)NCC(=O)O)CC[C@@]1(C)c1cccc(O)c1.O.O [alvimopan, [[(2S)-2-[[(3R,4R)-4-(3-hydroxyphenyl)-3,4-dimethylpiperidin-1-yl]methyl]-3-phenylpropanoyl]amino]acetic acid dihydrate]
- efficacy (0.5 mg BID): comparable to 1 mg QD or 1 mg BID
- safety profile (0.5 mg BID): comparable to the placebo
- primary and key secondary endpoints (spontaneous bowel movement frequency) compared to placebo (all three doses (0.5 mg BID, 1 mg QD, 1 mg BID), subjects on chronic opioid therapy): significantly better, both clinically and statistically, than the placebo
- tolerability (all treatment arms): well-tolerated
- analgesic antagonism (based on changes in pain scores or opioid consumption during the study): no evidence of analgesic antagonism
- rebound post active treatment (non-treatment follow-up period): no evidence of rebound
- tachyphylaxis (over six-week treatment period): no evidence of tachyphylaxis
- onset and duration of treatment effects (six-week treatment period): significant at week 1 and were sustained over the entire six-week treatment period
